Assay results taken from patent US11413278B2, “Compounds and methods for promoting stress resistance” (priority 2015, dated 2022).
Entries after “also recorded” stand apart in the source; their conditions may differ. Where two headings read alike, the source gives them in different places.

Experiments:
Assay type in all cases: cell-based, human
WI-38 cells = assay: Propidium iodide (PI) cell-death imaging upon H2O2 stress; settings: for Assay 7: H2O2-resistant, at 10 uM, validated by propidium iodide (PI) cell-death imaging: w/H2O2, 3 hrs/4 hrs/5 hrs, YES/NO; for cytotoxicity at 10 µM: Homo sapiens, WI-38
NRF2 = assay: in vitro
FOXO3 = assay: qPCR analysis of FOXO3-regulated genes; settings: for fold induction at 10 µM: Homo sapiens; for K = Sestrin induction: score
Method in brief: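 WI-38 cells treated with compound at 10 μM for 24 h, followed by Cells-to-Ct RT-qPCR of FOXO3 target genes normalised to B2M, PPIA and GAPDH. FOXO3 or NRF2 dependence tested by prior 10 nM siRNA knockdown (36 h transfection, compound added ~24 h after replating).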

mTOR = mTOR inhibition (RPS6 phosphorylation status), In-Cell Western
Method in brief: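 WI-38 cells exposed to compounds at 5, 10 and 20 μM for 24 hrs. Fixed cells co-stained overnight at 4° C with anti-RPS and anti-pRPS6 (Ser-235/236) antibodies, then DyLight 680/800 secondaries. Phospho-RPS6 relative to total RPS6 read by near-infrared In-Cell Western imaging.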

[1] = H2O2 3 hrs, 10 uM, n = 6, negative control 5.44% ± 0.79%, read-out: Percentage of propidium iodide-positive dead cells (under H2O2 stress treatment), 3 hrs
[2] = pre-treatment at 10 uM, 3.5 hours of H2O2, DMSO control 27.4% ± 6.5%, */**/*** = reduced by one/two/three standard deviations, read-out: Percentage of propidium iodide-positive dead cells (under H2O2 stress treatment), at 10 uM
[3] = WI-38 cells, 10 μM, 24 hrs, n=4, qPCR normalized by B2M, read-out: DDB1 Normalized fold change
[4] = WI-38 cells, 10 μM, 24 hrs, n=4, qPCR normalized by B2M, read-out: GADD45A Normalized fold change
[5] = WI-38 cells, 10 μM, 24 hrs, n=4, qPCR normalized by B2M, read-out: SESN1 Normalized fold change
[6] = qPCR, WI-38 cells, 10 μM, n=4, 24 hrs, normalized by B2M, read-out: CAT Normalized fold change
[7] = qPCR, WI-38 cells, 10 μM, n=4, 24 hrs, normalized by B2M, read-out: SOD2 Normalized fold change
[8] = qPCR, WI-38 cells, 10 μM, n=4, 24 hrs, normalized by B2M, read-out: TXNIP Normalized fold change
[9] = 10 μM, 24 hrs, WI-38 cells, qPCR, normalized to B2M, n = 4
[10] = WI-38 cells, 10 μM, 24 hrs, n=4, qPCR normalized by B2M
[11] = fold change, qPCR, WI-38 cells, 10 μM, 24 hrs
[12] = qPCR, WI-38 cells, 10 μM, n=4, 24 hrs, normalized by B2M
[13] = 10 uM, with H2O2, NRF2 knockdown in WI-38 cells, YES = resistance reduced by at least 50%, partial = 25% to 50%

## Cc1ccc(NC(=O)c2ccc([N+](=O)[O-])o2)cc1C [Gr-1F]
WI-38 cells; 10 uM
  Assay 7: H2O2-resistant, at 10 uM, validated by propidium iodide (PI) cell-death imaging: YES
WI-38 cells; [1]
  cytotoxicity at 10 µM: 3.55%
WI-38 cells; H2O2 4 hrs, 10 uM, n = 6, negative control 16.81% ± 1.42%, read-out: Percentage of propidium iodide-positive dead cells (under H2O2 stress treatment), 4 hrs
  cytotoxicity at 10 µM: 3.07%
WI-38 cells; H2O2 5 hrs, 10 uM, n = 6, negative control 22.50% ± 1.53%, read-out: Percentage of propidium iodide-positive dead cells (under H2O2 stress treatment), 5 hrs
  cytotoxicity at 10 µM: 4.57%
WI-38 cells; [2]
  cytotoxicity at 10 µM: 11.2%
NRF2; human, 24 h, 10 uM
  viability of non-stressed cells, reduced by: by 50%)
NRF2; score
  J = NRF2-dependency for H2O2-resistance: 0
NRF2; summary score
  J = NRF2-dependency for H2O2-resistance: 0
FOXO3; 2-point score
  E = Potential FOXO3 Activation: 0
FOXO3; 24 h, Assay 10(m), at 10 uM, qPCR, read-out: Induction of FOXO3-regulated genes: DDB1 normalized fold-change
  fold induction at 10 µM: 1.12
FOXO3; 24 h, Assay 10(m), at 10 uM, qPCR, read-out: Induction of FOXO3-regulated genes: GADD45A normalized fold-change
  fold induction at 10 µM: 0.8
FOXO3; 24 h, Assay 10(m), at 10 uM, qPCR, read-out: Induction of FOXO3-regulated genes: SESN1 normalized fold-change
  fold induction at 10 µM: 1.64
FOXO3; WI-38, 24 h, read-out: SESN1 expression
  fold induction at 10 µM: > 1.5
FOXO3; 10 μM, 24 hrs, WI-38 cells, qPCR, normalized to B2M, n = 4, read-out: CAT expression, normalized fold change (FOXO3-regulated gene)
  fold induction at 10 µM: 1.35
FOXO3; 10 μM, 24 hrs, WI-38 cells, qPCR, normalized to B2M, n = 4, read-out: SESN1 expression, normalized fold change (FOXO3-regulated gene)
  fold induction at 10 µM: 2
FOXO3; [3]
  fold induction at 10 µM: 1.37
FOXO3; [4]
  fold induction at 10 µM: 1.02
FOXO3; [5]
  fold induction at 10 µM: 2
FOXO3; fold change, qPCR, WI-38 cells, 10 μM, 24 hrs, read-out: Summary of effects on FOXO3-regulated genes: CAT
  fold induction at 10 µM: 1.35
FOXO3; fold change, qPCR, WI-38 cells, 10 μM, 24 hrs, read-out: Summary of effects on FOXO3-regulated genes: SESN1
  fold induction at 10 µM: 2
FOXO3; [6]
  fold induction at 10 µM: 1.35
FOXO3; [7]
  fold induction at 10 µM: 1.68
FOXO3; [8]
  fold induction at 10 µM: 1.54
FOXO3
  K = Sestrin induction: 1
FOXO3; summary score
  E = Potential FOXO3 Activation: 0
mTOR; 2-point score
  G = mTOR down-regulation: 0
mTOR; summary score
  G = mTOR down-regulation: 0

## COc1cc2c(no[n+]2[O-])n2nnnc12 [O11]
WI-38 cells; 10 uM
  Assay 7: H2O2-resistant, at 10 uM, validated by propidium iodide (PI) cell-death imaging: YES
WI-38 cells; H2O2 3 hrs, 10 uM, n = 6, negative control 5.44% ± 0.79%
  Percentage of propidium iodide-positive dead cells (under H2O2 stress treatment), 3 hrs: 2.19% ± 0.35%,
WI-38 cells; H2O2 4 hrs, 10 uM, n = 6, negative control 16.81% ± 1.42%
  Percentage of propidium iodide-positive dead cells (under H2O2 stress treatment), 4 hrs: 2.80% ± 0.49%,
WI-38 cells; H2O2 5 hrs, 10 uM, n = 6, negative control 22.50% ± 1.53%
  Percentage of propidium iodide-positive dead cells (under H2O2 stress treatment), 5 hrs: 2.90% ± 0.70%,
WI-38 cells; pre-treatment at 10 uM, 3.5 hours of H2O2, DMSO control 27.4% ± 6.5%, */**/*** = reduced by one/two/three standard deviations
  Percentage of propidium iodide-positive dead cells (under H2O2 stress treatment), at 10 uM: 26.5%
NRF2; score
  J = NRF2-dependency for H2O2-resistance: 0
NRF2; summary score
  J = NRF2-dependency for H2O2-resistance: 0
FOXO3; 10 μM, 24 hrs, WI-38
  Induction of at least two of five FOXO3-regulated genes (SOD2, GADD45A, CAT, DDB1, TXNIP): significant induction; also recorded: significant, induction; also recorded: induce FOXO3-regulated genes
FOXO3; [9]
  CAT expression, normalized fold change (FOXO3-regulated gene): CAT 1.41, fold
  DDB1 expression, normalized fold change (FOXO3-regulated gene): DDB1 1.31, fold
  SESN1 expression, normalized fold change (FOXO3-regulated gene): SESN1 1.77, fold
  TXNIP expression, normalized fold change (FOXO3-regulated gene): TXNIP 1.35, fold
FOXO3; 2-point score
  E = Potential FOXO3 Activation: 0
FOXO3; Assay 10(m), at 10 uM, qPCR
  Induction of FOXO3-regulated genes: CAT normalized fold-change: CAT 1.41, fold-change
  Induction of FOXO3-regulated genes: DDB1 normalized fold-change: DDB1 1.31, fold-change
  Induction of FOXO3-regulated genes: SESN1 normalized fold-change: SESN1 1.77, fold-change
  Induction of FOXO3-regulated genes: TXNIP normalized fold-change: TXNIP 1.35, fold-change
FOXO3; [10]
  DDB1 Normalized fold change: 1.308 fold change
  GADD45A Normalized fold change: 1.431 fold change
  SESN1 Normalized fold change: 1.773 fold change
FOXO3; [11]
  Summary of effects on FOXO3-regulated genes: CAT: CAT 1.41,
  Summary of effects on FOXO3-regulated genes: DDB1: DDB1 1.31,
  Summary of effects on FOXO3-regulated genes: SESN1: SESN1 1.77,
  Summary of effects on FOXO3-regulated genes: TXNIP: TXNIP 1.35,
FOXO3; [12]
  CAT Normalized fold change: 1.410
  SOD2 Normalized fold change: 1.143
  TXNIP Normalized fold change: 1.346
FOXO3
  K = Sestrin induction: 1
FOXO3; summary score
  E = Potential FOXO3 Activation: 0
mTOR; 2-point score
  G = mTOR down-regulation: 0
mTOR; summary score
  G = mTOR down-regulation: 0

## O=C1NCCCc2cc(Cl)sc21 [O1]
WI-38 cells; 10 uM
  Assay 7: H2O2-resistant, at 10 uM, validated by propidium iodide (PI) cell-death imaging: YES
WI-38 cells; [1]
  cytotoxicity at 10 µM: 5.8%
WI-38 cells; [2]
  cytotoxicity at 10 µM: 20.4%
NRF2; 10 uM, experiment 1 (1st), with H2O2
  NRF2-dependency for H2O2-resistance, at 10 uM - with H2O2, 1st experiment: 1st, partial;
NRF2; 10 uM, experiment 2 (2nd), with H2O2
  NRF2-dependency for H2O2-resistance, at 10 uM - with H2O2, 2nd experiment: 2nd, partial.
NRF2; [13]
  NRF2-dependency for H2O2-resistance, 1st experiment: partial;
  NRF2-dependency for H2O2-resistance, 2nd experiment: partial.
NRF2; 10 uM, YES/NO
  Assay 17: NRF2-dependency for H2O2-resistance: YES
NRF2; at least 2 of 3 independent experiments
  NRF2-dependency of H2O2-resistance (NRF2 siRNA knockdown): significantly attenuate
NRF2; score
  J = NRF2-dependency for H2O2-resistance: 1
NRF2; summary score
  J = NRF2-dependency for H2O2-resistance: 1
FOXO3; 2-point score
  E = Potential FOXO3 Activation: 0
FOXO3; [3]
  fold induction at 10 µM: 1.2
FOXO3; [4]
  fold induction at 10 µM: 0.853
FOXO3; [5]
  fold induction at 10 µM: 1.18
FOXO3; [6]
  fold induction at 10 µM: 1.25
FOXO3; [7]
  fold induction at 10 µM: 1.11
FOXO3; [8]
  fold induction at 10 µM: 1.11
FOXO3
  K = Sestrin induction: 0
FOXO3; summary score
  E = Potential FOXO3 Activation: 0
mTOR; 2-point score
  G = mTOR down-regulation: 0
mTOR; summary score
  G = mTOR down-regulation: 0
